Columns and labels:
[1] = target: integrin αvβ3 (Homo sapiens, UniProt P05106+P06756); assay: Integrin αvβ3 binding affinity test (biotinylated vitronectin competition on immobilized integrin); conditions: inhibition of biotinylated vitronectin binding
Description: Test Example 1 Integrin […] Binding Affinity Test
(§1) 0.2 μg/mL of δvβ3 was immobilized in a 96-well plates (Corning Incorporated) and then blocked using a 1% Block Ace (DS Pharma Biomedical Co., Ltd.) solution, and then the plate was washed with T-PBS (PBS containing 0.05% Tween 20). A 2× concentrated evaluation compound solution (10× concentration of 3.16× dilution from 0.3 μmol/L, buffer (20 mM Tris-HCl pH 7.5, 150 mM NaCl, 1 mM CaCl2), 1 mM MgCl2, 1 mM MnCl2)) and a 4 μg/mL biotinylated vitronectin solution (labeling vitronectin (Upstate Biotechnology Inc.) by using EZ-Link Sulfo-NHS-Biotinylation Kit (Pierce Protein Biology) and then adjusting concentration) were each added to the plate in an amount of 50 μL, and the plate was shaken for 2 hours at room temperature. The plate was washed with T-PBS, a 0.2 μg/mL avidin·peroxidase (Pierce Protein Biology) was added thereto, and the plate was shaken for 1 hour at room temperature. The plate was washed with T-PBS, an o-phenylenediamine (Sigma-Aldrich Co., LLC.) solution was added thereto such that color was produced (stopped using 4 mol/L sulfuric acid), and the absorbance (490 nm, Reference: 595 nm) was measured. The IC50 value was calculated using XLfit 3.0 (ID Business Solutions Ltd.). For each plate, as a QC sample, RGDfV (Bachem AG) was measured in duplicate. […]

[2] = target: integrin αvβ5 (Homo sapiens, UniProt P06756+P18084); assay: Integrin αvβ5 binding affinity test (biotinylated vitronectin competition on immobilized integrin); conditions: inhibition of biotinylated vitronectin binding
Description: Test Example 2 Integrin […] Binding Affinity Test
as §1, with “[…]” for “δvβ3”, “PBST (10 mM Na2HPO4 pH 7.5, 150 mM NaCl, 0.01%” for “T-PBS (PBS containing 0.05%”, “[…],” for “μmol/L,”, “PBST,” for “T-PBS,”, “[…] avidin-peroxidase” for “μg/mL avidin·peroxidase”

[3] = system: U87MG cells; assay: Radioactivity concentration of labeled compounds in tumor, U87MG subcutaneous transplantation; format: in vivo, mice (Balb/c AJcl-nu/nu); conditions: caudal vein, 111In 740 kBq, 64Cu and 90Y 500 kBq
Description: Test Example 3 Evaluation based on radioactivity concentration of ^111In-labeled compound, ^64Cu-labeled compound, and ^90Y-labeled compound in tumor
After 2 to 3 weeks, at a point in time when the tumor volume became 200 to 500 mm^3, 3 mice were sorted into one group at each point in time. The ^111In-labeled compound (740 k Bq) was administered into the caudal vein, the animals were sacrificed after a certain period of time, and the tumor was extracted. The weight of the tumor was measured, the radioactivity was measured using a gamma counter, and the radioactivity concentration in tumor (% ID/g) was calculated. For the ^64Cu-labeled compound (500 k Bq) and the ^90Y-labeled compound (500 k Bq), the radioactivity concentration in tumor (% ID/g) was calculated by the same method.

[4] = system: U87MG cells; assay: Imaging of integrin expression tumor by PET; format: in vivo, mice (Balb/c AJcl-nu/nu); conditions: 48 hours after administration, 4.8 MBq/mouse caudal vein
Description: Test Example 4 Imaging of Integrin Expression Tumor by Positron Emission Tomography (PET) Using [^64Cu]-(Compound A) and [^64Cu]-(Compound B)
After 2 weeks, [^64Cu]-(compound A) was administered at 4.8 MBq/mouse into the caudal vein of the mice with a tumor having a volume of […] to 650 mm^3. After 1, 4, 24, and 48 hours, the mice were imaged by microPET/CT (Inveon, Siemens Healthcare GmbH) under isoflurane anesthesia. […], whole blood was collected from the postcava under deep isoflurane anesthesia, the animals were euthanised, and then the tumor was extracted. The weight of the tumor was measured, the radioactivity was measured using a gamma counter, and the radioactivity concentration in tumor (% ID/g) was calculated. For [^64Cu]-(compound B), imaging was performed by the same method.
FIGS. 1 and 2 show PET images relating to each compound captured at each point in time. […] As a result, a hematoma matching with the image was found in the central portion. At the time of dissection (48 hours after administration), the radioactivity concentration in tumor was 5.6% ID/g.

[5] = Absorbed dose in a human being simulated with OLINDA/EXM 1.0 from monkey organ distribution
Description: Blood was collected from a crab-eating macaque over time, and by using [^111In]-(compound A), from the radioactivity concentration in the blood, kinetic parameters of the compound in blood were calculated by OLINDA/EXM 1.0. Furthermore, by using [^111In]-(compound A), from the organ distribution obtained by imaging, the absorbed dose of each organ obtained in a case where the compound is administered to a human being was calculated using OLINDA/EXM 1.0. [^111In]-(compound A) (98 MBq/9.3 μg) was administered to a crab-eating macaque (Hamri Co., Ltd., males, 3-year-old, 3.4 kg) under anesthesia. After the administration, blood was collected over time, and imaging was performed using a gamma camera. The blood was collected 10, 30, and 60 minutes after the administration and 2, 4, 5, 6, 24, 48, 72, and 144 hours after the administration. Regarding the imaging, after 1, 2, 4, 6, 24, 48, 72, and 144 hours, planar imaging was performed using a gamma camera (Symbia, Siemens Healthcare GmbH). Regarding the anesthesia, the animal was anesthetized with ketamine at 20 mg/kg before the administration of [^111In]-(compound A) and kept anesthetized until the end of imaging, which was continued for 6 hours after the administration, by inhalation anesthesia (isofluran 2 to 3%, 5 to 8 L/min). After 24 hours, ketamine (20 mg/kg) and xylazine (2 mg/kg) were administered to perform blood collection and imaging.
Furthermore, by using exposure dose analysis software OLINDA/EXM 1.0, the absorbed dose in a human being was simulated using each of the labeled compounds, and the results are shown below.

[6] = Radiochemical purity after standing at room temperature (reversed-phase TLC); format: physicochemical; conditions: 22 hours
Description: A indium [^111In] chloride solution (80 MBq, 100 μL) was added to a mixture of the compound A (8.5 μg) and a 0.2 mol/L sodium acetate buffer solution (pH 4.0) (1.5 mL). The solution was heated to 100° C. for 15 minutes and then left to stand for 5 minutes at room temperature, thereby obtaining [^111In]-(compound A). […] The radiochemical purity measured immediately after the compound was prepared and measured after 24 hours at room temperature was equal to or higher than 95%.
A yttrium [^90Y] chloride solution (700 MBq, 240 μL) was added to a mixture of the compound (79 μg), gentisic acid (1.8 mg), a 0.6 mol/L sodium acetate buffer solution (pH 4.0, 120 μL), and 0.4 mol/L aqueous sodium hydroxide solution (24 μL). The solution was heated to 100° C. for 20 minutes and then left to stand for 5 minutes at room temperature, thereby obtaining [90^Y]-(compound A). […] The radiochemical purity measured immediately after the compound was prepared and measured after 24 hours at room temperature was equal to or higher than 95%.
A copper [^64Cu] chloride solution (pH 5, 35 MBq, 55 μL) was added to a mixture of the compound A (5.8 μg) and 0.2 mol/L sodium acetate buffer solution (pH 4.0, 219 μL). The solution was heated to 100° C. for 15 minutes and left to stand for 5 minute at room temperature, thereby obtaining [^64Cu]-(compound A). […] The radiochemical purity measured immediately after the compound was prepared and measured after 22 hours at room temperature was equal to or higher than 90%.
A 0.2 mol/L sodium acetate buffer solution of Copper [^64Cu] chloride (pH 4.0) (40 MBq, 155 μL) was added to a mixture of the compound B (4.2 μg), gentisic acid (1 mg), and a 0.2 mol/L sodium acetate buffer solution (pH 4.0) (5.0 μL). The solution was heated to 100° C. for 15 minutes and left to stand for 5 minutes at room temperature, thereby obtaining [^64Cu]-(compound B). […] The radiochemical purity measured immediately after the compound was prepared and measured after 24 hours at room temperature was equal to or higher than 90%.
(§2) A gallium [^67Ga] chloride solution (200 MBq, 63 μL) was added to a mixed solution of the compound A (21 μg), gentisic acid (1.0 mg), a 0.2 mol/L sodium acetate buffer solution (pH 4.0, 730.7 μL), and 4.5 mol/L aqueous sodium hydroxide solution (6.3 μL). The solution was heated to 100° C. for 15 minutes and then left to stand for 5 minutes at room temperature, thereby obtaining [^67Ga]-(compound A).
A lutetium [^177Lu] chloride solution (666 MBq, 333 μL) dissolved in a 0.2 mol/L sodium acetate buffer solution (pH 4.0) was added to a mixed solution of the compound A (70.0 μg), gentisic acid (1.8 mg), and a 0.2 mol/L sodium acetate buffer solution (pH 4.0, 83.3 μL). The solution was heated to 100° C. for 15 minutes and then left to stand for 5 minutes at room temperature, thereby obtaining [^177Lu]-(compound A).
as §2, with “(40” for “(200”, “11.7” for “63”, “B (4.1” for “A (21”, “4.5, 147.13” for “4.0, 730.7”, “(1.17” for “(6.3”, “B).” for “A).”

SMILES	IC50 [1] [nM]	IC50 [2] [nM]	Radioactivity concentration in tumor After 4 hours ([3]; 4 hours) [% ID/g]	Radioactivity concentration in tumor After 24 hours ([3]; 24 hours) [% ID/g]	radioactivity concentration in tumor at the time of dissection [4] [% ID/g]	Absorbed dose Brain [5] [mGy/MBq]	Absorbed dose Kidney [5] [mGy/MBq]	Absorbed dose Liver [5] [mGy/MBq]	Absorbed dose Lung [5] [mGy/MBq]	Absorbed dose Red marrow [5] [mGy/MBq]	Absorbed dose Small intestine [5] [mGy/MBq]	Absorbed dose Whole body [5] [mGy/MBq]	radiochemical purity immediately after preparation and after 22 hours at room temperature [6] [%]
Cc1cc(OCCCC(=O)NCCNC(=O)[C@H](CS(=O)(=O)O)NC(=O)CN2CCN(CC(=O)O)CCN(CC(=O)O)CCN(CC(=O)O)CC2)cc(C)c1S(=O)(=O)N[C@@H](CNC(=O)CCCCc1ccc2c(n1)NCCC2)C(=O)O [Compound A, 2,2′,2″-(10-(2-(((R)-1-((2-(4-(4-(N—((S)-1-carboxy-2-(5-(5,6,7,8-tetrahydro-1,8-naphthyridin-2-yl)pentanamide)ethyl)sulfamoyl)-3,5-dimethylphenoxy)butanamide)ethyl)amino)-1-oxo-3-sulfopropan-2-yl)amino)-2-oxoethyl)-1,4,7,10-tetraazacyclododecane-1,4,7-triyl)triacetic acid]	< 1	< 1	–	–	–	–	–	–	–	–	–	–	–
Cc1cc(OCCCC(=O)NCCNC(=O)[C@H](CS(=O)(=O)O)NC(=O)CC[C@H](C(=O)O)N2CCN(CC(=O)O)CCN(CC(=O)O)CC2)cc(C)c1S(=O)(=O)N[C@@H](CNC(=O)CCCCc1ccc2c(n1)NCCC2)C(=O)O [Compound B, 2,2′-(7-((R)-1-carboxy-4-(((R)-1-((2-(4-(4-(N—((S)-1-carboxy-2-(5-(5,6,7,8-tetrahydro-1,8-naphthyridin-2-yl)pentanamide)ethyl)sulfamoyl)-3,5-dimethylphenoxy)butanamide)ethyl)amino)-1-oxo-3-sulfopropan-2-yl)amino)-4-oxobutyl)-1,4,7-triazonane-1,4-diyl)diacetic acid]	< 1	< 1	–	–	–	–	–	–	–	–	–	–	–
Cc1cc(OCCCC(=O)NCCNC(=O)C(CS(=O)(=O)O)NC(=O)CN2CCN(CC(=O)[O-])CCN(CC(=O)O)CCN(CC(=O)[O-])CC2)cc(C)c1S(=O)(=O)NC(CNC(=O)CCCCc1ccc2c(n1)NCCC2)C(=O)O.[64Cu+2] (stereo not drawn) [[^64Cu]-(compound A)]	–	–	9.25	8.48	5.6	0.11	0.69	0.09	0.08	0.01	0.06	0.02	≥ 90
